Laboratory results published in US9242981B2, “Fused pyrazole derivatives as novel ERK inhibitors” (Merck Sharp & Dohme Corp., priority 2010, dated 2016).

These molecules were tested against Mouse ERK2 protein (Mus musculus (Mouse), UniProt P63085) (assay: Coupled MEK1/ERK2 IMAP assay or Active ERK2 IMAP assay). Conditions: Table 1, class symbols, 30 μM ATP.
Assay type: biochemical

Sequence of Mouse ERK2 protein (P63085 whole entry): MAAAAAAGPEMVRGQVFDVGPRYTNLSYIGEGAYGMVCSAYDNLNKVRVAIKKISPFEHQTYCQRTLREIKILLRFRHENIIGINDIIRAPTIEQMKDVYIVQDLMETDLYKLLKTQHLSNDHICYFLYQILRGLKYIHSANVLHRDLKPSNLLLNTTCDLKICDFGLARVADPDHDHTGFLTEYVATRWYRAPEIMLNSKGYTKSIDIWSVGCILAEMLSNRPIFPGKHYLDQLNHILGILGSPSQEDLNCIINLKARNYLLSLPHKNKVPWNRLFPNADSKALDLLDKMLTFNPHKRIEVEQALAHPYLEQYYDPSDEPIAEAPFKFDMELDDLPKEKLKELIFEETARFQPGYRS

Q: Which IC50 does the source give for `CC1(C(=O)Nc2ccccc2OCc2cccnc2)CCc2[nH]nc(-c3ccncc3)c2C1` (stereo not shown) [Compound 14, 4,5,6,7-tetrahydro-5-methyl-3-(4-pyridinyl)-N-[2-(3-pyridinylmethoxy)phenyl]-1H-indazole-5-carboxamide] here?
A: Its IC50 is 1 to 100 µM.

Q: With `Cc1nc2cc(-c3n[nH]c4c3CN(C(=O)N[C@@H]3CCCN(Cc5ccnc6ccccc56)C3)CC4)ccc2o1` [Compound 144, 1,4,6,7-tetrahydro-3-(2-methyl-5-benzoxazolyl)-N-[1-(4-quinolinylmethyl)-3(R)-piperidinyl]-5H-pyrazolo[4,3-c]pyridine-5-carboxamide] as the molecule, how does the IC50 read?
A: Its IC50 is 0.101 to 1 µM.

Q: With `CN1CC(NC(=O)N2CCc3[nH]nc(-c4ccncc4)c3C2)CC(c2ccccc2)C1` (stereo not shown) [Compound 49, 1,4,6,7-tetrahydro-N-(1-methyl-5-phenyl-3-piperidinyl)-3-(4-pyridinyl)-5H-pyrazolo[4,3-c]pyridine-5-carboxamide] as the molecule, how does the IC50 read?
A: Its IC50 is less than 0.02 µM.

Q: `O=C(N[C@@H]1CCCN(Cc2c(F)cccc2F)C1)N1CCc2[nH]nc(-c3ccc4c(c3)CCO4)c2C1` [Compound 179, N[1-[(2,6-difluorophenyl)methyl]-3(R)-piperidinyl]-3-(2,3-dihydro-5-benzofuranyl)-1,4,6,7-tetrahydro-5H-pyrazolo[4,3-c]pyridine-5-carboxamide] was tested. Which IC50 did it give?
A: The IC50 was 0.021 to 0.1 µM.

Q: How did the IC50 turn out when `COc1cccc(F)c1CN1CC(C)CC(NC(=O)N2CCc3[nH]nc(-c4ccnc(C)c4)c3C2)C1` (stereo not shown) [Compound 90, N-[1-[(2-fluoro-6-methoxyphenyl)methyl]-5-methyl-3-piperidinyl]-1,4,6,7-tetrahydro-3-(2-methyl-4-pyridinyl)-5H-pyrazolo[4,3-c]pyridine-5-carboxamide] was run?
A: The IC50 was 0.021 to 0.1 µM.

Q: For `CC(C)C(Cn1ccnc1)NC(=O)C1(C)CCc2[nH]nc(-c3ccncc3)c2C1` (stereo not shown) [Compound 16, 4,5,6,7-tetrahydro-N-[1-(1H-imidazoL-1-ylmethyl)-2-methylpropyl]-5-methyl-3-(4-pyridinyl)-1H-indazole-5-carboxamide], which IC50 is on record?
A: Its IC50 is 1 to 100 µM.

Q: With `O=C(Cc1ccccn1)N1CCc2[nH]nc(-c3ccncc3)c2C1` [Compound 30, 4,5,6,7-tetrahydro-3-(4-pyridinyl)-5-(2-pyridinylacetyl)-1H-pyrazolo[4,3-c]pyridine] as the molecule, how does the IC50 read?
A: The IC50 was 0.101 to 1 µM.

Q: How did the IC50 turn out when `O=C(C1CCCc2ccccc21)N1CCc2[nH]nc(-c3ccncc3)c2C1` (stereo not shown) [Compound 39, 4,5,6,7-tetrahydro-3-(4-pyridinyl)-5-[(1,2,3,4-tetrahydro-1-naphthalenyl)carbonyl]-1H-pyrazolo[4,3-c]pyridine] was run?
A: The IC50 was 1 to 100 µM.

Q: `Cc1cc(-c2n[nH]c3c2CN(C(=O)NC2CCCN(Cc4c(F)cccc4Cl)C2)CC3)ccn1` (stereo not shown) [Compound 85, N-[1-[(2-chloro-6-fluorophenyl)methyl]-3-piperidinyl]-1,4,6,7-tetrahydro-3-(2-methyl-4-pyridinyl)-5H-pyrazolo[4,3-c]pyridine-5-carboxamide] was tested. Which IC50 did it give?
A: The IC50 was less than 0.02 µM.

Q: Which IC50 does the source give for `COc1cccc(F)c1CN1CC2CC(NC(=O)N3CCc4[nH]nc(-c5ccncc5)c4C3)C1C2` (stereo not shown) [Compound 108, N-[2-[(2-fluoro-6-methoxyphenyl)methyl]-2-azabicyclo[2.2.1]hept-6-yl]-1,4,6,7-tetrahydro-3-(4-pyridinyl)-5H-pyrazolo[4,3-c]pyridine-5-carboxamide] here?
A: The IC50 was 0.101 to 1 µM.

Q: Which IC50 does the source give for `Cc1cc(-c2n[nH]c3c2CN(C(=O)NC2CC(C)CN(Cc4c(F)cccc4F)C2)CC3)ccn1` (stereo not shown) [Compound 89, N-[1-[(2,6-difluorophenyl)-methyl]-5-methyl-3-piperidinyl]-1,4,6,7-tetrahydro-3-(2-methyl-4-pyridinyl)-5H-pyrazolo[4,3-c]pyridine-5-carboxamide] here?
A: The IC50 was 0.021 to 0.1 µM.

Q: Which IC50 does the source give for `COc1cccc(F)c1CN1CCC[C@@H](NC(=O)N2CCc3[nH]nc(-c4ccc(-c5ccccc5)nc4)c3C2)C1` [Compound 138, N-[1-[(2-fluoro-6-methoxyphenyl)methyl]-3(R)-piperidinyl]-1,4,6,7-tetrahydro-3-(6-phenyl-3-pyridinyl)-5H-pyrazolo[4,3-c]pyridine-5-carboxamide] here?
A: Its IC50 is 0.101 to 1 µM.

Q: With `COc1cccc(F)c1CN1CCC[C@@H](NC(=O)N2CCc3[nH]nc(-c4ccc5sc(C)nc5c4)c3C2)C1` [Compound 186, (R)-N-(1-(2-fluoro-6-methoxybenzyl)piperidin-3-yl)-3-(2-methylbenzo[d]thiazol-5-yl)-6,7-dihydro-1H-pyrazolo[4,3-c]pyridine-5(4H)-carboxamide] as the molecule, how does the IC50 read?
A: The IC50 was 0.021 to 0.1 µM.

Q: How did the IC50 turn out when `Cn1ccc(CN2CCC[C@@H](NC(=O)N3CCc4[nH]nc(-c5ccncc5)c4C3)C2)n1` [Compound 65, 1,4,6,7-tetrahydro-N-[1-[(1-methyl-1H-pyrazol-3-yl)methyl]-3(R)-piperidinyl]-3-(4-pyridinyl)-5H-pyrazolo[4,3-c]pyridine-5-carboxamide] was run?
A: Its IC50 is 0.101 to 1 µM.

Q: Which IC50 does the source give for `O=C(Cc1ccccc1F)N1CCc2[nH]nc(-c3ccncc3)c2C1` [Compound 24, 5-[(2-fluorophenyl)acetyl]-4,5,6,7-tetrahydro-3-(4-pyridinyl)-1H-pyrazolo[4,3-c]pyridine] here?
A: The IC50 was 0.101 to 1 µM.

Q: Which IC50 does the source give for `O=C(N[C@@H]1CCCN(Cc2ccccc2)C1)N1CCc2[nH]nc(-c3ccc4c(c3)CCO4)c2C1` [Compound 177, 3-(2,3-dihydro-5-benzofuranyl)-1,4,6,7-tetrahydro-N-[1-(phenylmethyl)-3(R)-piperidinyl]-5H-pyrazolo[4,3-c]pyridine-5-carboxamide] here?
A: The IC50 was less than 0.02 µM.

Q: `COc1cccc(F)c1CN1CCC[C@@H](NC(=O)N2CCc3[nH]nc(-c4ccc5c(c4)CCO5)c3C2)C1` [Compound 181, (R)-3-(2,3-dihydrobenzofuran-5-yl)-N-(1-(2-fluoro-6-methoxybenzyl)piperidin-3-yl)-6,7-dihydro-1H-pyrazolo[4,3-c]pyridine-5(4H)-carboxamide] was tested. Which IC50 did it give?
A: The IC50 was less than 0.02 µM.

Q: How did the IC50 turn out when `O=C(N[C@@H]1CCCN(Cc2c(F)cccc2F)C1)N1CCc2[nH]nc(-c3ccc4ncccc4c3)c2C1` [Compound 130, N-[1-[(2,6-difluorophenyl)-methyl]-3(R)-piperidinyl]-1,4,6,7-tetrahydro-3-(6-quinolinyl)-5H-pyrazolo[4,3-c]pyridine-5-carboxamide] was run?
A: The IC50 was 0.021 to 0.1 µM.

Q: Which IC50 does the source give for `Cc1cc(-c2n[nH]c3c2CN(C(=O)N[C@H]2CC[C@H]4CC[C@@H]2N4Cc2ccccc2F)CC3)ccn1` [Compound 166, N-[endo-8-[(2-fluorophenyl)methyl]-8-azabicyclo[3.2.1]oct-2-yl]-1,4,6,7-tetrahydro-3-(2-methyl-4-pyridinyl)-5H-pyrazolo[4,3-c]pyridine-5-carboxamide] here?
A: The IC50 was 0.101 to 1 µM.

Q: `CN1C[C@@H](NC(=O)N2CCc3[nH]nc(-c4ccc5c(c4)CCO5)c3C2)[C@H](c2ccccc2C(F)(F)F)C1` (racemic) [Compound 153, 3-(2,3-dihydro-5-benzofuranyl)-1,4,6,7-tetrahydro-N-[trans-1-methyl-4-[2-(trifluoromethyl)phenyl]-3-pyrrolidinyl]-5H-pyrazolo[4,3-c]pyridine-5-carboxamide] was tested. Which IC50 did it give?
A: The IC50 was less than 0.02 µM.

Q: `CC1CC(NC(=O)N2CCc3[nH]nc(-c4ccncc4)c3C2)CN(Cc2ccccc2F)C1` (stereo not shown) [Compound 52, N-[1-[(2-fluorophenyl)-methyl]-5-methyl-3-piperidinyl]-1,4,6,7-tetrahydro-3-(4-pyridinyl)-5H-pyrazolo[4,3-c]pyridine-5-carboxamide] was tested. Which IC50 did it give?
A: Its IC50 is 0.021 to 0.1 µM.

Q: For `COc1ccc(-c2n[nH]c3c2CN(C(=O)N[C@@H]2CCCN(Cc4c(F)cccc4F)C2)CC3)cn1` [Compound 132, N-[1-[(2,6-difluorophenyl)-methyl]-3(R)-piperidinyl]-1,4,6,7-tetrahydro-3-(6-Methoxy-3-pyridinyl)-5H-pyrazolo[4,3-c]pyridine-5-carboxamide], which IC50 is on record?
A: Its IC50 is 0.021 to 0.1 µM.
